± gives the uncertainty stated by the source.
Assay: xn = mol fraction of the nth substance listed

C1CCCCCCC1 + C1CCCC1
101 kPa
Conditions	viscosity [mPa·s]
298.15 K, x1 = 0.0472	0.4501 ± 0.0048
298.15 K, x1 = 0.06	0.4609 ± 0.0049
298.15 K, x1 = 0.1203	0.5119 ± 0.0053
298.15 K, x1 = 0.1974	0.5838 ± 0.006
298.15 K, x1 = 0.1982	0.5837 ± 0.006
298.15 K, x1 = 0.2776	0.6681 ± 0.0068
298.15 K, x1 = 0.4053	0.824 ± 0.008
298.15 K, x1 = 0.4083	0.827 ± 0.008
298.15 K, x1 = 0.5052	0.968 ± 0.01
298.15 K, x1 = 0.5909	1.116 ± 0.011
298.15 K, x1 = 0.6747	1.276 ± 0.013
298.15 K, x1 = 0.7902	1.55 ± 0.015
298.15 K, x1 = 0.9049	1.895 ± 0.019
303.15 K, x2 = 0.1036	1.684 ± 0.01
303.15 K, x2 = 0.2009	1.421 ± 0.0085
303.15 K, x2 = 0.3014	1.205 ± 0.0073
303.15 K, x2 = 0.3972	1.031 ± 0.0064
303.15 K, x2 = 0.5003	0.8744 ± 0.0055
303.15 K, x2 = 0.5992	0.7468 ± 0.0049
303.15 K, x2 = 0.7036	0.6288 ± 0.0043
303.15 K, x2 = 0.8996	0.4555 ± 0.0036

C1CCCCCCC1 + C1CCCCC1
viscosity [mPa·s], 101 kPa
Conditions	303.15 K	308.15 K	313.15 K
x2 = 0.0546	–	1.706 ± 0.027	1.541 ± 0.024
x2 = 0.0923	1.877 ± 0.011	–	–
x2 = 0.1695	–	1.514 ± 0.024	1.381 ± 0.022
x2 = 0.2019	1.715 ± 0.01	–	–
x2 = 0.2513	–	1.41 ± 0.022	1.277 ± 0.02
x2 = 0.2992	1.585 ± 0.0094	–	–
x2 = 0.3712	–	1.274 ± 0.02	1.165 ± 0.019
x2 = 0.4839	–	1.158 ± 0.019	1.054 ± 0.017
x2 = 0.4989	1.344 ± 0.0081	–	–
x2 = 0.5516	–	1.097 ± 0.018	1.004 ± 0.017
x2 = 0.5811	1.254 ± 0.0076	–	–
x2 = 0.6466	1.183 ± 0.0072	–	–
x2 = 0.6567	–	1.006 ± 0.017	0.9146 ± 0.015
x2 = 0.7233	1.102 ± 0.0068	–	–
x2 = 0.7817	–	0.9053 ± 0.015	0.8267 ± 0.014
x2 = 0.8015	1.021 ± 0.0063	–	–
x2 = 0.8998	0.924 ± 0.0058	–	–
x2 = 0.9314	–	0.8049 ± 0.014	0.7359 ± 0.013

CCCCC + C1CCCCC1
101 kPa
Conditions	viscosity [mPa·s]
293.15 K, x2 = 0.2248	0.287 ± 0.008
293.15 K, x2 = 0.3367	0.327 ± 0.009
293.15 K, x2 = 0.4743	0.39 ± 0.01
293.15 K, x2 = 0.601	0.466 ± 0.012
293.15 K, x2 = 0.7202	0.561 ± 0.015
293.15 K, x2 = 0.8333	0.685 ± 0.018
298.15 K, x2 = 0.176	0.264 ± 0.007
298.15 K, x2 = 0.3541	0.321 ± 0.009
298.15 K, x2 = 0.4788	0.372 ± 0.01
298.15 K, x2 = 0.6163	0.447 ± 0.013
298.15 K, x2 = 0.7478	0.544 ± 0.02
298.15 K, x2 = 0.8754	0.68 ± 0.026

CCCCCCCO + C1CCCCC1
viscosity [mPa·s]
Conditions	293.15 K	303.15 K	313.15 K	323.15 K
100 kPa, x2 = 0.0812	6.08 ± 0.49	4.38 ± 0.35	3.22 ± 0.26	2.46 ± 0.2
100 kPa, x2 = 0.1614	5.3 ± 0.43	3.79 ± 0.3	2.82 ± 0.23	2.16 ± 0.17
100 kPa, x2 = 0.2386	4.61 ± 0.37	3.28 ± 0.26	2.47 ± 0.2	1.91 ± 0.15
100 kPa, x2 = 0.3496	3.76 ± 0.3	2.69 ± 0.22	2.05 ± 0.16	1.59 ± 0.13
100 kPa, x2 = 0.4387	3.17 ± 0.25	2.28 ± 0.18	1.75 ± 0.14	1.38 ± 0.11
100 kPa, x2 = 0.5596	2.47 ± 0.2	1.81 ± 0.15	1.41 ± 0.11	1.12 ± 0.09
100 kPa, x2 = 0.6491	2.02 ± 0.16	1.52 ± 0.12	1.18 ± 0.1	0.95 ± 0.08
100 kPa, x2 = 0.7411	1.64 ± 0.13	1.27 ± 0.1	1 ± 0.08	0.82 ± 0.07
100 kPa, x2 = 0.8503	1.28 ± 0.1	1.03 ± 0.08	0.83 ± 0.07	0.7 ± 0.06
100 kPa, x2 = 0.9397	1.07 ± 0.09	0.87 ± 0.07	0.72 ± 0.06	0.62 ± 0.05
101.33 kPa, x1 = 0.0996	–	0.9648 ± 0.012	–	–
101.33 kPa, x1 = 0.197	–	1.134 ± 0.014	–	–
101.33 kPa, x1 = 0.3024	–	1.357 ± 0.016	–	–
101.33 kPa, x1 = 0.3923	–	1.585 ± 0.019	–	–
101.33 kPa, x1 = 0.5062	–	1.936 ± 0.023	–	–
101.33 kPa, x1 = 0.6052	–	2.307 ± 0.027	–	–
101.33 kPa, x1 = 0.7008	–	2.749 ± 0.032	–	–
101.33 kPa, x1 = 0.795	–	3.258 ± 0.037	–	–
101.33 kPa, x1 = 0.884	–	3.84 ± 0.043	–	–

OC1CCCCC1 + C1CCCCC1
101 kPa
Conditions	viscosity [mPa·s]
303.15 K, x2 = 0.05	19 ± 1
303.15 K, x2 = 0.09	15.63 ± 0.44
303.15 K, x2 = 0.14	12.83 ± 0.36
308 K, x2 = 0.1168	10.68 ± 0.074
308 K, x2 = 0.2322	7.143 ± 0.051
308 K, x2 = 0.3358	4.937 ± 0.037
308 K, x2 = 0.4443	3.51 ± 0.026
308 K, x2 = 0.5452	2.453 ± 0.019
308 K, x2 = 0.6483	1.716 ± 0.013
308 K, x2 = 0.7411	1.326 ± 0.01
308 K, x2 = 0.8311	1.049 ± 0.0083
308 K, x2 = 0.918	0.8891 ± 0.0071
323.15 K, x2 = 0.05	7.54 ± 0.22
323.15 K, x2 = 0.09	6.39 ± 0.18
323.15 K, x2 = 0.14	5.53 ± 0.16

CCCCC + C1CCOC1
viscosity [mPa·s], 101 kPa
Conditions	x2 = 0.1001	x2 = 0.2001	x2 = 0.3001	x2 = 0.4001	x2 = 0.5001	x2 = 0.6001	x2 = 0.7001	x2 = 0.8001	x2 = 0.9001
293.15 K	0.2331 ± 0.011	0.2498 ± 0.011	0.2688 ± 0.012	0.2894 ± 0.012	0.3116 ± 0.013	0.3371 ± 0.014	0.3686 ± 0.014	0.4034 ± 0.015	0.4485 ± 0.017
298.15 K	0.2241 ± 0.01	0.2405 ± 0.011	0.258 ± 0.011	0.2768 ± 0.012	0.2977 ± 0.012	0.3204 ± 0.013	0.347 ± 0.014	0.38 ± 0.015	0.4212 ± 0.016

CCOC(=O)C(C)O (stereo not given) + C1CCOC1
101 kPa
Conditions	viscosity [mPa·s]
308.15 K, x1 = 0.6999	1.255 ± 0.024
313.15 K, x1 = 0.4001	0.7575 ± 0.014

CS(C)=O + C1CCOC1
298.15 K, 101 kPa
Conditions	viscosity [mPa·s]
x2 = 0.27	1.523 ± 0.013
x2 = 0.52	1.112 ± 0.01
x2 = 0.76	0.7376 ± 0.0083

CCCCC + CC1CCCCC1
viscosity [mPa·s], 101 kPa
Conditions	x2 = 0.0407	x2 = 0.2014	x2 = 0.2807	x2 = 0.3471	x2 = 0.4382	x2 = 0.6005	x2 = 0.681	x2 = 0.7595	x2 = 0.8406	x2 = 0.9199
293.15 K	0.2369 ± 0.003	0.2738 ± 0.0033	0.2958 ± 0.0035	0.3151 ± 0.0037	0.3506 ± 0.004	0.429 ± 0.0049	0.4775 ± 0.0054	0.5323 ± 0.0061	0.5947 ± 0.0069	0.6586 ± 0.0077
298.15 K	0.2277 ± 0.003	0.2567 ± 0.0032	0.2795 ± 0.0034	0.3014 ± 0.0036	0.337 ± 0.0039	0.4124 ± 0.0047	0.4571 ± 0.0053	0.5046 ± 0.0058	0.5587 ± 0.0065	0.6168 ± 0.0073
303.15 K	0.1977 ± 0.0028	0.2381 ± 0.0031	0.2612 ± 0.0033	0.2824 ± 0.0035	0.3164 ± 0.0038	0.3885 ± 0.0045	0.431 ± 0.005	0.4771 ± 0.0056	0.5299 ± 0.0062	0.5849 ± 0.007

CCCCCCCO + CC#N
viscosity [mPa·s], 101 kPa
Conditions	298.15 K	303.15 K	308.15 K
x2 = 0.0959	3.772 ± 0.32	3.561 ± 0.31	2.881 ± 0.25
x2 = 0.2368	2.953 ± 0.26	2.592 ± 0.23	2.277 ± 0.2
x2 = 0.3327	2.267 ± 0.2	2.022 ± 0.18	1.808 ± 0.16
x2 = 0.4126	1.836 ± 0.17	1.634 ± 0.15	1.457 ± 0.13
x2 = 0.5459	1.278 ± 0.12	1.149 ± 0.11	1.047 ± 0.099
x2 = 0.6546	0.943 ± 0.091	0.857 ± 0.084	0.786 ± 0.078
x2 = 0.741	0.716 ± 0.072	0.658 ± 0.067	0.611 ± 0.063
x2 = 0.8119	0.58 ± 0.061	0.547 ± 0.058	0.51 ± 0.055
x2 = 0.8706	0.487 ± 0.053	0.463 ± 0.051	0.433 ± 0.048
x2 = 0.9199	0.423 ± 0.047	0.402 ± 0.046	0.382 ± 0.044
x2 = 0.9633	0.384 ± 0.044	0.366 ± 0.043	0.35 ± 0.041

C[N+](C)(C)CCC[n+]1ccccc1.N#C[N-]C#N.N#C[N-]C#N + CC#N
100 kPa
Conditions	viscosity [mPa·s]
293.15 K, x1 = 0.1999	10.75 ± 1.1
298.15 K, x1 = 0.0999	3.205 ± 0.32
298.15 K, x1 = 0.1999	9.545 ± 0.96
298.15 K, x1 = 0.4999	98.11 ± 10
308.15 K, x1 = 0.2998	20.95 ± 2.1
313.15 K, x1 = 0.2998	18.15 ± 1.8
318.15 K, x1 = 0.7998	117.5 ± 12

CC(=O)CC(C)(C)O + CC(=O)CC(C)C
298.15 K, 101 kPa
Conditions	viscosity [mPa·s]
x2 = 0.1301	2.157 ± 0.021
x2 = 0.2473	1.707 ± 0.017
x2 = 0.3676	1.351 ± 0.013
x2 = 0.4821	1.108 ± 0.011
x2 = 0.5836	0.943 ± 0.009
x2 = 0.6974	0.796 ± 0.008
x2 = 0.8046	0.687 ± 0.007
x2 = 0.9001	0.608 ± 0.006
